Measurements: patent US20230265438A1, “NUCLEIC ACIDS FOR INHIBITING EXPRESSION OF CNNM4 IN A CELL” (ASOCIACIÓN CENTRO DE INVESTIGACIÓN COOPERATIVA EN …, priority 2020, published 2023)
Oligonucleotides are written 5' to 3', each unit as a sugar letter and its base; * is a phosphorothioate linkage, no mark a phosphodiester; rarer units and linkages stand in square brackets, end groups in braces. Plain capitals give the bases only. {ST23(ps)x3-ST43} = conjugate of three ST23 units joined by phosphorothioates, then ST43, saccharide (preferably GalNAc) moiety; {VP} = (E)-vinylphosphonate; m = 2'-O-methyl; f = 2'-fluoro

Legend:
ASGP-R complex = biological target: T1, ASGP-R complex (Homo sapiens, UniProt P07306+P07307); conditions: cited from earlier work
T1 sequence (P07306 1-291): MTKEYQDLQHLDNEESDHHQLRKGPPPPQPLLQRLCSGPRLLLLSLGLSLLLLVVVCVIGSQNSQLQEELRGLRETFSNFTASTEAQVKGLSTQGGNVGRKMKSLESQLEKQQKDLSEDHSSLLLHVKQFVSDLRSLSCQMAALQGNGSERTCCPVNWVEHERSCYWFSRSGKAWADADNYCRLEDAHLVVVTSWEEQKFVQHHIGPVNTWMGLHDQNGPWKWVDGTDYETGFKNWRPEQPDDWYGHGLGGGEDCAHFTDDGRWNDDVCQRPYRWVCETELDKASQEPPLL
T1 sequence (P07307 1-311): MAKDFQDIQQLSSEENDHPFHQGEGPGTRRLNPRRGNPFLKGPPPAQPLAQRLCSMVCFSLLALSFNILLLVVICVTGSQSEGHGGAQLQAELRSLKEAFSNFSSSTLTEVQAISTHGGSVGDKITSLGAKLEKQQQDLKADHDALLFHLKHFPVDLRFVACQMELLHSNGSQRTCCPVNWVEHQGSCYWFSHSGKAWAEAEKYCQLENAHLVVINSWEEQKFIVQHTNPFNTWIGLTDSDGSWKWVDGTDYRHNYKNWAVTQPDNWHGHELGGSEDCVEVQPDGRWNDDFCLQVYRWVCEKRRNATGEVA

THLE2 cells = assay: Lipid accumulation in NASH-induced human cells (THLE2) (Example 1); assay type: cell-based; conditions: FIG. 4A, 4B
Description: THLE-2 cells were purchased from ATCC (ATCC® CRL-2706TM). They were maintained on Bronchial Epithelial Growth Medium (BEGMTM, Lonza) supplemented with BEGM Bullet KitTM (Lonza) and 10%FBS. They were split with 0.05% trypsin-EDTA and collected in BEGM. After centrifugation at 123 g during 5 minutes, supernatant was discarded and pellet resuspended.
Cells were transfected with specific siRNAs (Hs n7o for human CNNM4 and Mm n7o for mouse CNNM4) at a final concentration of 100 nM using DharmaFECT 1 reagent (Dharmacon) following manufacturer’s protocol. DharmaFECT 1 and siRNA were diluted separately in 0% FBS/1% PSG MEM for 5′ at RT. Dilutions were then mixed and incubated 20′ at RT. siRNA transfection mixes were then added to cell suspension medium and replaced for fresh medium after 6 h.
Cells were transfected with a CNNM4 shRNA (SEQ ID NO: 454) by using lipofectamine® 3000 (Thermofisher) and following the protocol according manufacturer instructions. […]
(§1) Primary hepatocytes cultured in high lipid content medium (OA) or methionine/choline deficient medium (MDMC) were fixed in 4% paraformaldehyde (10′, RT) in PBS and incubated with BODIPY 493/503 (Molecular Probes, Invitrogen) at 1 mg/ml (1h, RT). […] Quantification of lipid bodies was performed using Frida Software and represented as mean area per total number of cells.

CNNM4 = CNNM4 expression in hepatocytes of the APAP experiment (Example 19); assay type: cell-based; conditions: murine hepatocytes, 1 nM and 10 nM for 6 hours; FIG. 25A
CNNM4 mRNA = CNNM4 mRNA in liver of wild-type mice after single subcutaneous dose (Examples 12-14); assay type: in vivo, mouse; conditions: wild-type C57BL/6 mice
Description: (§2) Five- to seven-week old male C57BL/6 mice were treated with a single dose of 1 or 5 mg siRNA conjugate per kg body weight by subcutaneous injection. Control groups received a subcutaneous injection with the vehicle PBS. Two weeks after the treatment, liver samples were collected from all mice and snap frozen. RNA was extracted from liver samples and CNNM4 and Actin mRNA levels were determined by Taqman qRT-PCR. Values obtained for CNNM4 mRNA were normalized to values generated for the housekeeping gene Actin and related to mean of untreated sample (ut) set at 1-fold target gene expression. Each bar represents mean value from 6 animals +/-SD.
Five- to seven-week old male C57BL/6 mice were treated with a single dose of 0.3 or 1 mg siRNA conjugate per kg body weight by subcutaneous injection. Control groups received a subcutaneous injection with the vehicle PBS. Two weeks after the treatment, liver samples were collected from all mice and snap frozen. RNA was extracted from liver samples and CNNM4 and Actin mRNA levels were determined by Taqman qRT-PCR. Values obtained for CNNM4 mRNA were normalized to values generated for the housekeeping gene Actin and related to mean of untreated sample (ut) set at 1-fold target gene expression. Each bar represents mean value from 6 animals +/-SD.
as §2, with “1” for “1 or 5”, “Five” for “Two”, “PBS treated cohort (PBS)” for “untreated sample (ut)”

murine hepatocytes = assay: Acetaminophen (APAP) induced cell death in hepatocytes, Tunel and Trypan Blue (Example 19); assay type: cell-based; conditions: 1 nM and 10 nM for 6 hours, 10 mM acetaminophen for 6 hours
Description: Freshly prepared murine hepatocytes were seeded in multi-well plates. Upon attachment, cells were incubated for 6 hours with 1 nM and 10 nM of EU404 or EU414 or left untreated. Thereafter, cells were cultured in serum-free culture medium (MEM) for 13 to 14 hours. Subsequently, they remained untreated (Ut) or 10 mM acetaminophen was added to the medium (APAP). 6 hours later, cells were stained by Tunel assay or Trypan Blue staining to determine the proportion of cells that were necrotic (Tunel positive) or had undergone cell death (Trypan Blue positive).

0.1% MCDD NASH model = assay: Rodent 0.1% MCDD NASH model: steatosis, ROS, macrophages, fibrosis, serum Mg2+ (Example 18); assay type: in vivo, mouse; conditions: 0.1% MCDD mice
Description: Three-month old male C57BL/6 mice were maintained on a diet deficient in choline with 0.1% methionine (0.1%MCDD) (A02082006i, Research Diets, Inc., New Jersey, USA) for six weeks or fed a standard chow (SC). After three weeks of 0.1% MCDD, mice were treated with […] CNNM4 siRNA conjugate (EU414) per body weight. Control groups fed with 0.1% MCD received 1 mg/kg non-targeting siRNA conjugate (EU400). Control mice fed with normal chow (SC) received the vehicle PBS at the same time point (three weeks). Liver samples were collected from all mice at the end of the study and cryopreserved by embedding in […] cryocompound (OCT) or fixed with formalin and embedded in paraffin for preparation of sections. Lipid bodies and reactive oxygen species (ROS) were detected in cryosections by staining with Sudan red and Dihydroxyetidium (DHE), respectively. Liver fibrosis was assessed in paraffine sections by staining of the smooth muscle cell marker alpha smooth muscle actin (αSMA) by immunohistochemistry, as well as by detection of collagen fibers by Sirius red staining. Macrophages were detected by immunohistochemistry, by F4/80 staining of paraffin-embedded liver sections. Blood samples were collected from all animals at the six-week time point for serum preparation. Serum Mg^2+ levels were then determined using the QuantiCrom™Magnesium Assay Kit (BioAssay Systems, USA).
These figures show quantifications of stained area percentages from each individual staining calculated using FIJI (https://imagej.net/Fiji.) in box and whisker plots with 5-95% percentile. n=5-7. (a.u. = arbitrary units).

primary hepatocytes [1] = assay: Intracellular magnesium levels in primary hepatocytes (Example 1); assay type: cell-based, mouse; conditions: NASH-induced primary hepatocytes; FIG. 7B
Description: Primary hepatocytes grown in glass coverslips were loaded with 2 µM Mag-S-Tz or 1 µM Mag-S-Tz-AM diluted REF (Gruskos et al., 2016. J. Am. Chem. Soc. 138 (44), pp 14639-14649) in 0% FBS/1% PSG medium and incubated at 37° C. and 5% CO2 during 30′ or 1 h respectively. After removing the dye-containing medium, a 30′ incubation in 0% FBS/1% PSG was performed. Coverslips were then washed in a 20 mM Tris-HCl, 2.4 mM CaCl2, 10 mM glucose, pH 7.4 buffer and mounted on a perfusion chamber with thermostat on a Eclipse TE 300-based microspectrofluorometer (Nikon, USA) and visualized with a 40x oil-immersion fluorescence. Intracellular Mg2+ levels were determines using the method described by Grynkiewicz (Grynkiewiz et al., 1985. J Biol Chem. 260(6):3440-50). The 340/380 nm excited light ratio was determined with a Delta system (Photon Technologies International, Princeton) and converted into Mg^2+ concentration from the standard equation: […]

primary hepatocytes [2] = assay: Lipid content in NASH-induced primary hepatocytes, BODIPY (Example 1); assay type: cell-based, mouse
Description: Primary hepatocytes from 3-month old wild-type (C57BL/6J) mice were isolated by perfusion with collagenase Type I (Worthington, USA). Briefly, animals were anesthetized with isoflurane (1.5% isoflurane in O2). […] Liver was perfused with buffer A (1x PBS, 5 mM EGTA, 37° C. and oxygenated) and the portal vein was cut. Next, liver was perfused with buffer B (1x PBS, 1 mM CaCl2 37° C. and oxygenated) to remove EGTA, and finally perfused with buffer C (1x PBS, 2 mM CaCl2, 0.65 BSA, collagenase type I, 37° C. and oxygenated). After buffer C perfusion, liver was separated from the resto of the body and placed into a petri dish with MEM (Gibco, USA). Gall bladder was carefully removed and, then, liver was mechanically disaggregated with forceps. […]
as §1

For CC(=O)N[C@H]1C(O)O[C@H](CO)[C@H](O)[C@@H]1O (stereo partly drawn) [GalNAc, 2-(Acetylamino)-2-deoxy-D-galactopyranose], the “Affinity for the ASGP-R complex relative to D-Gal” value (ASGP-R complex) is given as 50 fold.

For “CNNM4 shRNA: CNNM4 shRNA (SEQ ID NO: 454) (UCUCUGCCUUCAAGGAUGCGGACAAUGAG; listed as RNA, chemistry not fully specified)”, the Lipid content (THLE2 cells) was “returns to healthy levels”.

With “EU414: CNNM4 siRNA conjugate, duplex EU414A/EU414B; consists of SEQ ID NO: 237 and SEQ ID NO: 238 (chain 1 {VP}-mUfGmAfCmAfAmAfAmGfAmCfAmCfAmAfGmA*fG*mU; chain 2 {ST23(ps)x3-ST43}*mAmCmUmCmUmUfGfUfGmUmCmUmUmUmUmGmU*mC*mA)” the CNNM4 expression (CNNM4) was “reduction of CNNM4 expression”, the “CNNM4 mRNA levels in the liver” value (CNNM4 mRNA; two weeks after single dose of 1 or 5 mg/kg s.c., FIG. 18) was “reduction of CNNM4 mRNA levels” and the “Tripan Blue positive cells (cell death marker)” value (murine hepatocytes) was “reduction”. The “Tunel positive cells (necrosis marker)” value (murine hepatocytes) was “reduction of Tunel positive cells”, the “Liver steatosis (lipid bodies, Sudan red)” value (0.1% MCDD NASH model; 1 or 5 mg/kg at week 3, liver at week 6, FIG. 24A) was “reduction of liver steatosis” and the “Reactive oxygen species (DHE staining)” value (0.1% MCDD NASH model; 1 or 5 mg/kg at week 3, liver at week 6, FIG. 24B) was “reduction of reactive oxygen species”. For the same compound, the “Macrophage infiltration (F4/80 positive cells) in the liver” value (0.1% MCDD NASH model; 1 or 5 mg/kg at week 3, liver at week 6, FIG. 24C) was “reduction of macrophage infiltration”, the “Liver fibrosis (αSMA, Sirius red)” value (0.1% MCDD NASH model; 1 or 5 mg/kg at week 3, liver at week 6, FIGS. 24D and 24E) was “reduction in liver fibrosis” and the “Serum Mg2+ levels” value (0.1% MCDD NASH model; 1 or 5 mg/kg at week 3, serum at six-week time point, FIG. 24F) was “reduction of serum Mg^2+ levels”.

For Nc1c[nH]c(=O)c2cc(-c3ccccc3)sc12 [7-amino-2-phenyl-5H-thieno[3,2-c]pyridin-4-one, reference compound], the Intracellular magnesium levels (primary hepatocytes [1]) was “accumulate magnesium” and the Lipid content (primary hepatocytes [2]; NASH-induced primary hepatocytes, FIG. 3A, 5A, 7A) was “decreases its lipid content”.

With “EU420: CNNM4 siRNA conjugate, duplex EU414A/EU420B; consists of SEQ ID NO: 237 and SEQ ID NO: 460 (chain 1 UGACAAAAGACACAAGAGU; chain 2 ACUCUUGUGUCUUUUGUCA; conjugate, chemistry not fully specified)” the “CNNM4 mRNA levels in the liver” value (CNNM4 mRNA; five weeks after single dose of 1 mg/kg s.c., FIG. 20) was “reduction of CNNM4 mRNA levels” and the “CNNM4 mRNA levels in the liver” value (CNNM4 mRNA; two weeks after single dose of 0.3 or 1 mg/kg s.c., FIG. 19) was “reduction of CNNM4 mRNA levels”.

In the case of Magnesium, the Lipid content (primary hepatocytes [2]; primary hepatocytes with CNNM4 overexpression, FIG. 5B) is reported as “does not reduce lipid content”.
